Measurements: ChEMBL document CHEMBL3044595, “Bioactivity of latifolin and its derivatives against termites and fungi” (2009)
The source made the active and inactive calls. The calls are words filed in the database; no cut-off is given here.

Experiments:
Reticulitermes speratus [1] = assay: Ratio of antifeedant activity for compound to antifeedant activity for latifolin against Reticulitermes speratus at 3% measured after 14 days; format: functional
Reticulitermes speratus [2] = assay: Ratio of antitermite activity for compound to antitermite activity for latifolin against Reticulitermes speratus at 3% measured after 14 days; format: functional
Reticulitermes speratus [3] = assay: Antitermite activity against Reticulitermes speratus in compound pretreated paper disks assessed as mortality at 3% measured after 14 days; format: functional
Reticulitermes speratus [4] = assay: Antifeedant activity against Reticulitermes speratus in compound pretreated paper disks assessed as mass loss of the paper disk at 3% measured after 14 days (reference value: 7.67 mg); format: functional
Trametes versicolor [5] = assay: Antifungal activity against Trametes versicolor NBRC 30340 assessed as diameter of mycelial growth at 5 ug/cm'2 at 25.5 degC after 5 days; format: functional
Fomitopsis palustris [6] = assay: Antifungal activity against Fomitopsis palustris NBRC 30339 assessed as diameter of mycelial growth at 5 ug/cm'2 at 25.5 degC after 14 days; format: functional
Rhizopus arrhizus = assay: Antifungal activity against Rhizopus oryzae NBRC 31005 assessed as mycelial growth inhibition at 5 ug/cm'2 at 25.5 degC after 36 hr; format: functional, organism-based
[7] = test system: Cladosporium cladosporioides; assay: Antifungal activity against Cladosporium cladosporioides NBRC 6348 assessed as diameter of mycelial growth at 5 ug/cm'2 at 25.5 degC after 20 days; format: functional
Trametes versicolor [8] = assay: Antifungal activity against Trametes versicolor NBRC 30340 assessed as mycelial growth inhibition at 5 ug/cm'2 at 25.5 degC after 5 days; format: functional
Fomitopsis palustris [9] = assay: Antifungal activity against Fomitopsis palustris NBRC 30339 assessed as mycelial growth inhibition at 5 ug/cm2 at 25.5 degC after 14 days; format: functional

Row | Structure (SMILES) | Ratio (Reticulitermes speratus [1]) | Ratio (Reticulitermes speratus [2]) | mortality (Reticulitermes speratus [3]) | Activity (Reticulitermes speratus [4]) | Activity (Trametes versicolor [5]) | Activity (Fomitopsis palustris [6]) | inhibition (Rhizopus arrhizus) | Activity [7] | inhibition (INH) (Trametes versicolor [8]) | inhibition (INH) (Fomitopsis palustris [9])
1 | C=C[C@H](c1ccccc1OC)c1cc(O)c(OC)cc1OC [2'-O-METHYLLATIFOLIN] | 1.98 | 1.75 | 46.7% | 0.82 mg | 60 mm | 42.5 mm | inactive | 30 mm | 16.5% | 18.3%
2 | C=C[C@H](c1ccccc1O)c1cc(OC)c(OC)cc1OC [5-O-METHYLLATIFOLIN] | 3.25 | 1.13 | 30% | 1.29 mg | 62.3 mm | 52.3 mm | inactive | 29.2 mm | 13.2% | -0.5%
3 | C=C[C@@H](c1cc(OC(C)=O)c(OC)cc1OC)c1ccccc1OC(C)=O [LATIFOLIN DIACETATE] | 2.89 | 2 | 53.3% | 1.13 mg | 56.2 mm | 51.3 mm | inactive | 28.7 mm | 21.8% | 1.4%
4 | C=C[C@H](c1ccccc1OC)c1cc(OC)c(OC)cc1OC [LATIFOLIN DIMETHYL ETHER] | 3.42 | 2.13 | 56.7% | 1.27 mg | 60.8 mm | 57 mm | inactive | 29.3 mm | 15.3% | -9.6%
5 | C=C[C@H](c1ccccc1O)c1cc(O)c(OC)cc1OC [LATIFOLIN] |  |  | 26.7% | 0.39 mg | 15 mm | 32.5 mm | inactive | 26.2 mm | 79.1% | 37.5%
